Assay results published in patent publication US11135202B2, “Thiazolide compounds for treating viral infections” (Romark Laboratories L.C., priority 2016, dated 2021).
≈ marks a conversion by molar mass, not a printed value.

What was measured:
[1] = system: Sendai virus (SeV); format: cell-based
[2] = system: RSV-A2; assay: RSV-A2 yield in infected HeLa cells (virus-induced syncytia counted by immunofluorescence); format: cell-based
[3] = system: respiratory syncytial virus; assay: Study RM08-3002 clinical trial, time to alleviation of symptoms, RSV patients; settings: human, in vivo
[4] = system: Sendai virus (SeV); assay: SeV virus yield in AGMK cells (HA titration, plaque assay; MTT viability; cytopathic effect); format: cell-based

CC(=O)Oc1ccccc1C(=O)Nc1ncc([N+](=O)[O-])s1 [nitazoxanide]
inhibition of SeV in A549 cells [1]: also effective
IC50 ([2]; human respiratory syncytial virus, HeLa cells, MOI 1 TCID50/cell, syncytia at 48 hours p.i., non cytotoxic doses, read-out: IC50, antiviral activity against RSV-A2): 0.3 µg/mL (≈ 0.976 µM)
IC90 ([2]; human respiratory syncytial virus, HeLa cells, MOI 1 TCID50/cell, syncytia at 48 hours p.i., non cytotoxic doses, read-out: IC90, antiviral activity against RSV-A2): 0.8 µg/mL (≈ 2.6 µM)
effect of treatment against RSV ([2]; in vitro): effective against RSV
reduction in duration of symptoms at the median vs placebo [3]: 76 h
protection of infected cells from virus-induced damage ([4]; SeV 3 PFU/cell, 10 μg/ml, 24 h p.i.): cytoprotective
inhibition of SeV replication ([4]; at concentrations non-toxic for the host cells): effective
